The compounds below were run on AMPA (assay: AMPA-induced spreading depression of chick retina). Conditions: 20 μM.
Procedure: The AMPA antagonistic effect of the compounds was also tested on spreading depression of chick retina (Sheardown, M. J.: Brain Res., 1993, 607, 189) in a concentration of 20 μM.
For `Cn1ncc2c(c1=O)SCCNC2C(=O)c1ccccc1` (stereo not shown) [Example 3, 5-Benzoyl-8-methyl-2,3,4,5-tetrahydro-9(8H)-pyridazino[4,5-b][1,5]thiazepinone], the “Antagonistic effect on AMPA-induced spreading depression (%)” value (“Antagonistic effect … (%)” below) was 10%.
In the case of `Cn1ncc2c(c1=O)OCCNC2Cc1ccccc1` (stereo not shown) [Example 4, 5-Benzyl-8-methyl-2,3,4,5-tetrahydro-9(8H)-pyridazino[4,5-b][1,5]oxazepinone], the “Antagonistic effect … (%)” value is reported as 17%.
With `O=c1c2c(cnn1CC=Cc1ccccc1)N(Cc1ccccc1)CCCO2` [Example 7, 5-Benzyl-8-cynnamyl-2,3,4,5-tetrahydro-9(8H)-pyridazino[4,5-b][1,5]oxazepinone] the “Antagonistic effect … (%)” value was 16%.
`Cn1ncc2c(c1=O)SCCNC2Cc1ccccc1` (stereo not shown) [Example 11, 5-Benzyl-8-methyl-2,3,4,5-tetrahydro-9(8H)-pyridazino[4,5-b][1,5]thiazepinone] was tested, and the “Antagonistic effect … (%)” value was 28%.
In the case of `Cn1ncc2c(c1=O)SCCNC2Cc1ccc(Cl)cc1` (stereo not shown) [Example 12, 5-(4-Chlorobenzyl)-8-methyl-2,3,4,5-tetrahydro-9(8H)-pyridazino[4,5-b]-[1,5]thiazepinone], the “Antagonistic effect … (%)” value is reported as 32%.
With `O=c1c2c(cnn1-c1ccccc1)C(Cc1ccccc1)NCCS2` (stereo not shown) [Example 13, 5-Benzyl-8-phenyl-2,3,4,5-tetrahydro-9(8H)-pyridazino[4,5-b]-[1,5]thiazepinone] the “Antagonistic effect … (%)” value was 48%.

Each compound was assayed on scopolamine-induced memory-deficit in rats (assay: Passive avoidance test, scopolamine-induced memory deficit in rats). Conditions: oral dose 50 mg/kg.
Format: in vivo, rat
Procedure: The memory-enhancing effect of the compounds according to the invention was measured by counter-balancing the scopolamine-induced memory-deficit in rats, with oral doses of 50 mg/kg, in the passive avoidance test published by Cumin, R. et al. [Psychopharmacology, 78, 104 (1982)].
`O=c1c2c(cnn1CC=Cc1ccccc1)N(Cc1ccccc1)CCCO2` [Example 7, 5-Benzyl-8-cynnamyl-2,3,4,5-tetrahydro-9(8H)-pyridazino[4,5-b][1,5]oxazepinone] was tested, and the “Memory improvement compared to amnesic control (%)” value was 250%.

Reference: patent US6602865B1, “Pyridazino(4,5-b)(1,5)oxazepinone, -thiazepinone and -diazepinone compounds” (IVAX Drug Research Institute, Ltd., priority 1998, dated 2003)
